Where two headings read alike, the source gives them in different places.
Tests used:
Assay type in all cases: in vivo
tobacco whitefly = assay: Test Example 3: spray test on tobacco whitefly larvae on cabbage; conditions: 168 h, sprayed on cabbage at 20 ml/cup, hatched larvae, seven days after spraying, read-out: Controlling value (%)
Tetranychus urticae = assay: Test Example 4: spray test on Tetranychus urticae on vineless common bean; conditions: 192 h, read-out: Controlling rate (%)
Experimental: Each of present compounds (1) to (3), (5), (17), (39), (55) to (57), (120) to (124), (129), (130), (135), (136), (139) to (141), (232), (236), (243), (255), (262), and the comparative compound (A) was formulated into a preparation according to Preparation Example 5. This preparation was diluted with water so that the concentration of the present compound or the comparative compound (A) became 500 ppm.
Meanwhile, about 60 Tetranychus urticae female imagoes were released on a vineless common bean plantlet (7 days after seeding, first leaf development phase) planted in a plastic cup, which was allowed to stand for 1 day. To this plantlet was sprayed 20 ml of each of the above diluted solutions.
Eight days after spraying, the number of surviving mites on a leaf of the vineless common bean was investigated, and a controlling rate was calculated according to the following equation.
Controlling rate (%)=100×{1−(number of surviving mites of treated group)/(number of surviving mites of non-treated group)}

cotton aphids [1] = assay: Test Example 2: soil immersion treatment of cucumber, cotton aphids inoculated afterwards; conditions: 144 h, 500 ppm test solution (5 ml + 40 ml water), aphids inoculated after 7 days, counted 6 days later, 25° C., read-out: Controlling value (%)
Experimental: Into a beer cup were poured 5 ml of the test diluted solution and 40 ml of water, where a cucumber planted in a polyethylene cup and grown to develop a first true leaf was accommodated, and the soil part was subjected to immersion-treatment. The plant was retained in a greenhouse at 25° C. for 7 days, 30 cotton aphids (all stages) were inoculated on a cucumber leaf surface, the plant was further retained in a greenhouse at 25° C. for 6 days, the number of surviving worms of cotton aphids parasitized on the leaf surface was investigated, and a controlling value was calculated according to the following equation.
(§1) Controlling value (%)={1−(Cb×Tai)/(Cai×Tb)}×100
(§2) Cb is the number of worms before treatment of a non-treated group.
(§3) Cai is the number of worms at observation of a non-treated group.
(§4) Tb is the number of worms before treatment of a treated group.
(§5) Tai is the number of worms at observation of a treated group.

cotton aphids [2] = assay: Test Example 1: spray test on cotton aphids parasitized on cucumber; conditions: 144 h; 500 ppm active ingredient, sprayed on cucumber at 20 ml/cup, six days after spraying; read-out: Controlling value (%)
Experimental: On the other hand, a cucumber was planted in a polyethylene cup, and grown until a first true leaf was developed, and 30 cotton aphids were parasitized thereon. One day after, the test spray solution was sprayed to the cucumber at a ratio of 20 ml/cup. Six days after spraying, the number of cotton aphids was investigated, and a controlling value was calculated according to the following equation.
as §1, §2, §3, §4, §5

[3] = 500 ppm, 20 ml sprayed on common bean plantlet, female imagoes, eight days after spraying

Row | Structure (SMILES) | pest or weed control at 500 ppm (tobacco whitefly) | pest or weed control at 500 ppm (cotton aphids [1]) | other results
1 | CCCCOc1nc(SC(=O)N(C)C)ns1 [(5)] | ≥ 90% | – | pest or weed control at 500 ppm (Tetranychus urticae; [3]): ≥ 90%
2 | C#CCOc1nc(SC(=O)N(C)C)ns1 [(7)] | ≥ 90% | – | –
3 | CC#CCOc1nc(SC(=O)N(C)C)ns1 [(8)] | ≥ 90% | – | –
4 | CN(C)C(=O)Sc1nsc(OC2CCOCC2)n1 [(17)] | ≥ 90% | ≥ 90% | pest or weed control at 500 ppm (Tetranychus urticae; [3]): ≥ 90%
5 | CN(C)C(=O)Sc1nsc(OCCCn2cccn2)n1 [(19)] | – | ≥ 90% | –
6 | CN(C)C(=O)Sc1nsc(OCC(C)(C)C)n1 [(31)] | ≥ 90% | – | –
7 | CN(C)C(=O)Sc1nsc(OCCC(C)(C)C)n1 [(33)] | – | – | pest or weed control at 500 ppm (cotton aphids [2]): ≥ 90%
8 | C=CCCCOc1nc(SC(=O)N(C)C)ns1 [(34)] | ≥ 90% | ≥ 90% | pest or weed control at 500 ppm (cotton aphids [2]): ≥ 90%
9 | C#CCC(C)Oc1nc(SC(=O)N(C)C)ns1 (stereo not shown) [(38)] | ≥ 90% | – | –
10 | C#CC(C)Oc1nc(SC(=O)N(C)C)ns1 (stereo not shown) [(39)] | ≥ 90% | – | pest or weed control at 500 ppm (Tetranychus urticae; [3]): ≥ 90%
11 | CN(C)C(=O)Sc1nsc(OCCCCl)n1 [(49)] | ≥ 90% | ≥ 90% | –
12 | CN(C)C(=O)Sc1nsc(OCCCCCl)n1 [(50)] | – | ≥ 90% | –
13 | CN(C)C(=O)Sc1nsc(OCC(C)(C)CCl)n1 [(52)] | ≥ 90% | – | –
14 | CN(C)C(=O)Sc1nsc(OCC(F)(F)C(F)(F)F)n1 [(59)] | ≥ 90% | ≥ 90% | pest or weed control at 500 ppm (cotton aphids [2]): ≥ 90%
15 | CC(Oc1nc(SC(=O)N(C)C)ns1)C(F)(F)C(F)(F)F (stereo not shown) [(61)] | ≥ 90% | ≥ 90% | pest or weed control at 500 ppm (cotton aphids [2]): ≥ 90%
16 | CN(C)C(=O)Sc1nsc(OCC(F)(F)C(F)(F)C(F)(F)F)n1 [(62)] | – | ≥ 90% | pest or weed control at 500 ppm (cotton aphids [2]): ≥ 90%
17 | CCC(Oc1nc(SC(=O)N(C)C)ns1)C(C)(C)C (stereo not shown) [(64)] | – | – | pest or weed control at 500 ppm (cotton aphids [2]): ≥ 90%
18 | CN(C)C(=O)Sc1nsc(OCCCl)n1 [(67)] | ≥ 90% | – | –
19 | CN(C)C(=O)Sc1nsc(OCc2ccsc2)n1 [(74)] | – | – | pest or weed control at 500 ppm (cotton aphids [2]): ≥ 90%
20 | CN(C)C(=O)Sc1nsc(OCc2cccc(F)c2)n1 [(79)] | – | ≥ 90% | –
21 | CN(C)C(=O)Sc1nsc(OCc2cccc(Cl)c2Cl)n1 [(99)] | – | – | pest or weed control at 500 ppm (cotton aphids [2]): ≥ 90%
22 | CN(C)C(=O)Sc1nsc(OCc2c(Cl)cccc2Cl)n1 [(102)] | – | – | pest or weed control at 500 ppm (cotton aphids [2]): ≥ 90%
23 | CN(C)C(=O)Sc1nsc(OCc2ccc(Cl)c(Cl)c2)n1 [(103)] | – | – | pest or weed control at 500 ppm (cotton aphids [2]): ≥ 90%
24 | CN(C)C(=O)Sc1nsc(OCc2ccc(F)c(C(F)(F)F)c2)n1 [(111)] | ≥ 90% | – | –
25 | CN(C)C(=O)Sc1nsc(OCc2ccc(C(F)(F)F)cc2C(F)(F)F)n1 [(112)] | ≥ 90% | – | –

Row | Structure (SMILES) | pest or weed control at 500 ppm (tobacco whitefly) | pest or weed control at 500 ppm (cotton aphids [1]) | other results
26 | CC1(C)OCC(COc2nc(SC(=O)N3CCOCC3)ns2)O1 (stereo not shown) [(119)] | ≥ 90% | – | –
27 | CCCOc1nc(SC(=O)N2CCOCC2)ns1 [(120)] | ≥ 90% | – | –
28 | CCOc1nc(SC(=O)N2CCOCC2)ns1 [(122)] | ≥ 90% | – | –
29 | CC#CCOc1nc(SC(=O)N2CCOCC2)ns1 [(125)] | – | ≥ 90% | –
30 | O=C(Sc1nsc(OCC2CCOC2)n1)N1CCOCC1 (stereo not shown) [(127)] | – | ≥ 90% | –
31 | O=C(Sc1nsc(OCC2COCO2)n1)N1CCOCC1 (stereo not shown) [(129)] | – | ≥ 90% | pest or weed control at 500 ppm (Tetranychus urticae; [3]): ≥ 90%
32 | O=C(Sc1nsc(OC2COCOC2)n1)N1CCOCC1 [(130)] | – | ≥ 90% | pest or weed control at 500 ppm (Tetranychus urticae; [3]): ≥ 90%
33 | COc1nc(SC(=O)N2CCCC2)ns1 [(135)] | – | – | pest or weed control at 500 ppm (Tetranychus urticae; [3]): ≥ 90%
34 | CCOc1nc(SC(=O)N2CCCC2)ns1 [(136)] | – | – | pest or weed control at 500 ppm (Tetranychus urticae; [3]): ≥ 90%
35 | O=C(Sc1nsc(Cl)n1)N1CCCC1 [(147)] | – | ≥ 90% | –
36 | CCOC(CCOc1nc(SC(=O)N(C)C)ns1)OCC [(201)] | ≥ 90% | ≥ 90% | pest or weed control at 500 ppm (cotton aphids [2]): ≥ 90%
37 | CN(C)C(=O)Sc1nsc(OCCCOc2nc(SC(=O)N(C)C)ns2)n1 [(204)] | – | – | pest or weed control at 500 ppm (cotton aphids [2]): ≥ 90%
38 | CN(C)C(=O)Sc1nsc(OCCCCOc2nc(SC(=O)N(C)C)ns2)n1 [(206)] | ≥ 90% | – | –
39 | CN(C)C(=O)Sc1nsc(OCc2ccccc2)n1 [(211)] | ≥ 90% | – | pest or weed control at 500 ppm (cotton aphids [2]): ≥ 90%
40 | CN(C)C(=O)Sc1nsc(OCc2ccccn2)n1 [(215)] | ≥ 90% | – | –
41 | Cc1nn(C)c(Oc2nc(SC(=O)N(C)C)ns2)c1C [(218)] | – | ≥ 90% | –
42 | CN(C)C(=O)Sc1nsc(OCCOc2nc(SC(=O)N(C)C)ns2)n1 [(225)] | – | – | pest or weed control at 500 ppm (cotton aphids [2]): ≥ 90%
43 | CN(C)C(=O)Sc1nsc(OCCOCC(F)(F)F)n1 [(232)] | – | – | pest or weed control at 500 ppm (Tetranychus urticae; [3]): ≥ 90%
44 | COCC(C)Oc1nc(SC(=O)N(C)C)ns1 (stereo not shown) [(236)] | – | – | pest or weed control at 500 ppm (Tetranychus urticae; [3]): ≥ 90%
45 | COCCOc1nc(SC(=O)N2CCCC2)ns1 [(243)] | – | – | pest or weed control at 500 ppm (Tetranychus urticae; [3]): ≥ 90%
46 | C=CCOc1nc(SC(=O)N(C)C)ns1 [(255)] | – | – | pest or weed control at 500 ppm (Tetranychus urticae; [3]): ≥ 90%
47 | C[C@H](Oc1nc(SC(=O)N2CCCC2)ns1)[C@H]1COC(C)(C)O1 [(262)] | – | – | pest or weed control at 500 ppm (Tetranychus urticae; [3]): ≥ 90%
48 | COCC(COc1nc(SC(=O)N(C)C)ns1)OC (stereo not shown) [(277)] | – | ≥ 90% | –
49 | CCCOc1nc(OC(=O)N(C)C)ns1 [comparative compound (A), reference compound] | 0% | – | pest or weed control at 500 ppm (Tetranychus urticae): 0%

— US20100081693A1, “T[…] AND USE THEREOF” (priority 2006, published 2010)
